Target: human CXCR3-A receptor (Homo sapiens (Human), UniProt P49682)
Assay: 125I-CXCL10 competition radioligand binding assay;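 also: One-hour incubation of membranes with tracer, bound radioligand separated by glass fibre filtration, IC50 derived from four-parameter nonlinear fit of competition curves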
Details: displacement of 125I-CXCL10 from membranes of CHO cells expressing human recombinant CXCR3-A

Chain of human CXCR3-A receptor (P49682 whole entry): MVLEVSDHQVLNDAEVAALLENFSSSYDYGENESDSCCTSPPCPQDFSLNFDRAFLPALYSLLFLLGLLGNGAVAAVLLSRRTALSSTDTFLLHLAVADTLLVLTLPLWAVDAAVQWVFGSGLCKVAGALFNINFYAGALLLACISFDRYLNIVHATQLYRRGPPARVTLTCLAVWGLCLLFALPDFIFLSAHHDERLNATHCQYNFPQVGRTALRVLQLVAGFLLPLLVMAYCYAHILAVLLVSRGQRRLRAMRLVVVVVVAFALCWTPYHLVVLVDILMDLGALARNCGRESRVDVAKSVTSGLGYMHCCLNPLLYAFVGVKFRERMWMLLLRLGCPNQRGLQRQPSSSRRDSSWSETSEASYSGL

| Compound | IC50 |
| --- | --- |
| O=C(O)CC(c1ccc(Cl)cc1)N(Cc1ccc(OCCN2C(=O)CCC2=O)c(F)c1)CC1CCCCC1 (stereo not shown) [Example 57, 3-(4-Chloro-phenyl)-3-(cyclohexylmethyl-{4-[2-(2,5-dioxo-pyrrolidin-1-yl)-ethoxy]-3-fluoro-benzyl}-amino)-propionic acid] | 212 nM |
| CCCN(Cc1ccc(OCCN2C(=O)CCC2=O)c(F)c1)C(CC(=O)O)c1ccc(Cl)c(F)c1 (stereo not shown) [Example 58, 3-(4-Chloro-3-fluoro-phenyl)-3-({4-[2-(2,5-dioxo-pyrrolidin-1-yl)-ethoxy]-3-fluoro-benzyl}-propyl-amino)-propionic acid] | 183 nM |
| CCCCN(Cc1ccc(OCCN2C(=O)CCC2=O)c(F)c1)C(CC(=O)O)c1ccc(Cl)c(F)c1 (stereo not shown) [Example 59, 3-(Butyl-{4-[2-(2,5-dioxo-pyrrolidin-1-yl)-ethoxy]-3-fluoro-benzyl}-amino)-3-(4-chloro-3-fluoro-phenyl)-propionic acid] | 109 nM |
| O=C(O)CC(c1ccc(Cl)c(F)c1)N(Cc1ccc(OCCN2C(=O)CCC2=O)c(F)c1)CC1CCCC1 (stereo not shown) [Example 60, 3-(4-Chloro-3-fluoro-phenyl)-3-(cyclopentylmethyl-{4-[2-(2,5-dioxo-pyrrolidin-1-yl)-ethoxy]-3-fluoro-benzyl}-amino)-propionic acid] | 243 nM |
| O=C(O)CC(c1ccc(Cl)c(F)c1)N(Cc1ccc(OCCN2C(=O)CCC2=O)c(F)c1)CC1CCCCC1 (stereo not shown) [Example 61, 3-(4-Chloro-3-fluoro-phenyl)-3-(cyclohexylmethyl-{4-[2-(2,5-dioxo-pyrrolidin-1-yl)-ethoxy]-3-fluoro-benzyl}-amino)-propionic acid] | 334 nM |
| CCCN(Cc1ccc(OCCN2C(=O)CCC2=O)c(F)c1)C(CC(=O)O)c1ccc(Cl)c(Cl)c1 (stereo not shown) [Example 62, 3-(3,4-Dichloro-phenyl)-3-({4-[2-(2,5-dioxo-pyrrolidin-1-yl)-ethoxy]-3-fluoro-benzyl}-propyl-amino)-propionic acid] | 503 nM |
| CC(C)CN(Cc1ccc(OCCN2C(=O)CCC2=O)c(F)c1)C(CC(=O)O)c1ccc(Cl)c(Cl)c1 (stereo not shown) [Example 63, 3-(3,4-Dichloro-phenyl)-3-({4-[2-(2,5-dioxo-pyrrolidin-1-yl)-ethoxy]-3-fluoro-benzyl}-isobutyl-amino)-propionic acid] | 303 nM |
| CCCCN(Cc1ccc(OCCN2C(=O)CCC2=O)c(F)c1)C(CC(=O)O)c1ccc(Cl)c(Cl)c1 (stereo not shown) [Example 64, 3-(Butyl-{4-[2-(2,5-dioxo-pyrrolidin-1-yl)-ethoxy]-3-fluoro-benzyl}-amino)-3-(3,4-dichloro-phenyl)-propionic acid] | 456 nM |
| O=C(O)CC(c1ccc(Cl)c(Cl)c1)N(Cc1ccc(OCCN2C(=O)CCC2=O)c(F)c1)CC1CCCC1 (stereo not shown) [Example 65, 3-(Cyclopentylmethyl-{4-[2-(2,5-dioxo-pyrrolidin-1-yl)-ethoxy]-3-fluoro-benzyl}-amino)-3-(3,4-dichloro-phenyl)-propionic acid] | 186 nM |
| Cc1cc(CN(CC2CCC2)[C@@H](CC(=O)O)c2ccc(Cl)cc2)ccc1OCCN1C(=O)CCC1=O [Example 71, (S)-3-(4-Chloro-phenyl)-3-(cyclobutylmethyl-{4-[2-(2,5-dioxo-pyrrolidin-1-yl)-ethoxy]-3-methyl-benzyl}-amino)-propionic acid] | 54 nM |
| Cc1cc(CN(CC2CC2)C(CC(=O)O)c2ccc(Cl)c(F)c2)ccc1OCCN1C(=O)CCC1=O (stereo not shown) [Example 74, 3-(4-Chloro-3-fluoro-phenyl)-3-(cyclopropylmethyl-{4-[2-(2,5-dioxo-pyrrolidin-1-yl)-ethoxy]-3-methyl-benzyl}-amino)-propionic acid] | 34 nM |
| CCCN(Cc1ccc(OCCN2C(=O)CCC2=O)c(C)c1)C(CC(=O)O)c1ccc(Cl)c(F)c1 (stereo not shown) [Example 75, 3-(4-Chloro-3-fluoro-phenyl)-3-({4-[2-(2,5-dioxo-pyrrolidin-1-yl)-ethoxy]-3-methyl-benzyl}-propyl-amino)-propionic acid] | 25 nM |
| CCCCN(Cc1ccc(OCCN2C(=O)CCC2=O)c(C)c1)C(CC(=O)O)c1ccc(Cl)c(F)c1 (stereo not shown) [Example 76, 3-(Butyl-{4-[2-(2,5-dioxo-pyrrolidin-1-yl)-ethoxy]-3-methyl-benzyl}-amino)-3-(4-chloro-3-fluoro-phenyl)-propionic acid] | 54 nM |
| Cc1cc(CN(CC2CCCCC2)C(CC(=O)O)c2ccc(Cl)c(F)c2)ccc1OCCN1C(=O)CCC1=O (stereo not shown) [Example 78, 3-(4-Chloro-3-fluoro-phenyl)-3-(cyclohexylmethyl-{4-[2-(2,5-dioxo-pyrrolidin-1-yl)-ethoxy]-3-methyl-benzyl}-amino)-propionic acid] | 72 nM |
| CCCN(Cc1ccc(OCCN2C(=O)CCC2=O)c(C)c1)C(CC(=O)O)c1ccc(Cl)c(Cl)c1 (stereo not shown) [Example 79, 3-(3,4-Dichloro-phenyl)-3-({4-[2-(2,5-dioxo-pyrrolidin-1-yl)-ethoxy]-3-methyl-benzyl}-propyl-amino)-propionic acid] | 116 nM |
| CCCCN(Cc1ccc(OCCN2C(=O)CCC2=O)c(C)c1)C(CC(=O)O)c1ccc(Cl)c(Cl)c1 (stereo not shown) [Example 81, 3-(Butyl-{4-[2-(2,5-dioxo-pyrrolidin-1-yl)-ethoxy]-3-methyl-benzyl}-amino)-3-(3,4-dichloro-phenyl)-propionic acid] | 100 nM |

| Compound | IC50 |
| --- | --- |
| Cc1cc(CN(CC2CCCC2)C(CC(=O)O)c2ccc(Cl)c(Cl)c2)ccc1OCCN1C(=O)CCC1=O (stereo not shown) [Example 82, 3-(Cyclopentylmethyl-{4-[2-(2,5-dioxo-pyrrolidin-1-yl)-ethoxy]-3-methyl-benzyl}-amino)-3-(3,4-dichloro-phenyl)-propionic acid] | 119 nM |
| Cc1cc(CN(CC2CCCCC2)C(CC(=O)O)c2ccc(Cl)c(Cl)c2)ccc1OCCN1C(=O)CCC1=O (stereo not shown) [Example 83, 3-(Cyclohexylmethyl-{4-[2-(2,5-dioxo-pyrrolidin-1-yl)-ethoxy]-3-methyl-benzyl}-amino)-3-(3,4-dichloro-phenyl)-propionic acid] | 302 nM |
| CCc1cc(CN(CC2CC2)C(CC(=O)O)c2ccc(Cl)cc2)ccc1OCCN1C(=O)CCC1=O (stereo not shown) [Example 84, 3-(4-Chloro-phenyl)-3-(cyclopropylmethyl-{4-[2-(2,5-dioxo-pyrrolidin-1-yl)-ethoxy]-3-ethyl-benzyl}-amino)-propionic acid] | 45 nM |
| CCCN(Cc1ccc(OCCN2C(=O)CCC2=O)c(CC)c1)C(CC(=O)O)c1ccc(Cl)cc1 (stereo not shown) [Example 85, 3-(4-Chloro-phenyl)-3-({4-[2-(2,5-dioxo-pyrrolidin-1-yl)-ethoxy]-3-ethyl-benzyl}-propyl-amino)-propionic acid] | 58 nM |
| CCc1cc(CN(CC(C)C)C(CC(=O)O)c2ccc(Cl)cc2)ccc1OCCN1C(=O)CCC1=O (stereo not shown) [Example 86, 3-(4-Chloro-phenyl)-3-({4-[2-(2,5-dioxo-pyrrolidin-1-yl)-ethoxy]-3-ethyl-benzyl}-isobutyl-amino)-propionic acid] | 12 nM |
| CCCCN(Cc1ccc(OCCN2C(=O)CCC2=O)c(CC)c1)C(CC(=O)O)c1ccc(Cl)cc1 (stereo not shown) [Example 87, 3-(Butyl-{4-[2-(2,5-dioxo-pyrrolidin-1-yl)-ethoxy]-3-ethyl-benzyl}-amino)-3-(4-chloro-phenyl)-propionic acid] | 31 nM |
| CCc1cc(CN(CC2CCC2)[C@@H](CC(=O)O)c2ccc(Cl)cc2)ccc1OCCN1C(=O)CCC1=O [Example 88, (S)-3-(4-Chloro-phenyl)-3-(cyclobutylmethyl-{4-[2-(2,5-dioxo-pyrrolidin-1-yl)-ethoxy]-3-ethyl-benzyl}-amino)-propionic acid] | 70 nM |
| CCc1cc(CN(CC2CCCCC2)C(CC(=O)O)c2ccc(Cl)cc2)ccc1OCCN1C(=O)CCC1=O (stereo not shown) [Example 89, 3-(4-Chloro-phenyl)-3-(cyclohexylmethyl-{4-[2-(2,5-dioxo-pyrrolidin-1-yl)-ethoxy]-3-ethyl-benzyl}-amino)-propionic acid] | 51 nM |
| CCc1cc(CN(CC2CC2)C(CC(=O)O)c2ccc(Cl)c(F)c2)ccc1OCCN1C(=O)CCC1=O (stereo not shown) [Example 90, 3-(4-Chloro-3-fluoro-phenyl)-3-(cyclopropylmethyl-{4-[2-(2,5-dioxo-pyrrolidin-1-yl)-ethoxy]-3-ethyl-benzyl}-amino)-propionic acid] | 50 nM |
| CCCN(Cc1ccc(OCCN2C(=O)CCC2=O)c(CC)c1)C(CC(=O)O)c1ccc(Cl)c(F)c1 (stereo not shown) [Example 91, 3-(4-Chloro-3-fluoro-phenyl)-3-({4-[2-(2,5-dioxo-pyrrolidin-1-yl)-ethoxy]-3-ethyl-benzyl}-propyl-amino)-propionic acid] | 56 nM |
| CCc1cc(CN(CC(C)C)C(CC(=O)O)c2ccc(Cl)c(F)c2)ccc1OCCN1C(=O)CCC1=O (stereo not shown) [Example 92, 3-(4-Chloro-3-fluoro-phenyl)-3-({4-[2-(2,5-dioxo-pyrrolidin-1-yl)-ethoxy]-3-ethyl-benzyl}-isobutyl-amino)-propionic acid] | 66 nM |
| CCCCN(Cc1ccc(OCCN2C(=O)CCC2=O)c(CC)c1)C(CC(=O)O)c1ccc(Cl)c(F)c1 (stereo not shown) [Example 93, 3-(Butyl-{4-[2-(2,5-dioxo-pyrrolidin-1-yl)-ethoxy]-3-ethyl-benzyl}-amino)-3-(4-chloro-3-fluoro-phenyl)-propionic acid] | 79 nM |
| CCc1cc(CN(CC2CCCC2)C(CC(=O)O)c2ccc(Cl)c(F)c2)ccc1OCCN1C(=O)CCC1=O (stereo not shown) [Example 94, 3-(4-Chloro-3-fluoro-phenyl)-3-(cyclopentylmethyl-{4-[2-(2,5-dioxo-pyrrolidin-1-yl)-ethoxy]-3-ethyl-benzyl}-amino)-propionic acid] | 71 nM |
| CCc1cc(CN(CC2CCCCC2)C(CC(=O)O)c2ccc(Cl)c(F)c2)ccc1OCCN1C(=O)CCC1=O (stereo not shown) [Example 95, 3-(4-Chloro-3-fluoro-phenyl)-3-(cyclohexylmethyl-{4-[2-(2,5-dioxo-pyrrolidin-1-yl)-ethoxy]-3-ethyl-benzyl}-amino)-propionic acid] | 144 nM |
| CCc1cc(CN(CC2CC2)C(CC(=O)O)c2ccc(Cl)c(Cl)c2)ccc1OCCN1C(=O)CCC1=O (stereo not shown) [Example 96, 3-(Cyclopropylmethyl-{4-[2-(2,5-dioxo-pyrrolidin-1-yl)-ethoxy]-3-ethyl-benzyl}-amino)-3-(3,4-dichloro-phenyl)-propionic acid] | 78 nM |

— US9447038B2 (SANOFI, priority 2012, dated 2016)
